The source of these data is patent publication US20100227836A1, “PARENTERAL ADMINISTRATION OF A GLUCOSAMINE” (THE JOHNS HOPKINS UNIVERSITY, priority 2008, published 2010).

The subject of data set [1] is transforming growth factor β1 (TGF-β1) expression. Conditions: cited from earlier work.
Data set [2] deals with surgically manipulated rat knees (osteoarthritis). The experiment in a line: Experimental model of osteoarthritis in rodents, intraarticular injection, cartilage histology (safranin-O). The settings on record: 2 mM, transcutaneous intraarticular injections weekly for three weeks. Type of data set: in vivo. On the procedure:
For example, in an experimental model of osteoarthritis in rodents, rat knees were surgically manipulated to obtain histological manifestations of osteoarthritis (Janusz et al., Osteoarth, Cart. 10:785-791, 2002). Four weeks […], injured joints were untreated, or treated with a PBS control, a 2 mM glucosamine solution or a 1:1 mixture of 2 mM glucosamine solution and CSMA-aldehyde (chondroitin sulfate methacrylate) (Wang et al., Nat. Mater. 6:385-392, 2007). Treatments were transcutaneous, intraarticular injections weekly for three weeks.

For data set [3] the following is noted: following nasogastric intake of 20 mg/kg/day of GlcN; cited from earlier work.
The test system of data set [4] is cell growth, matrix production and gene expression. The settings on record: narrow window; cited from earlier work.

Structures are written as SMILES.

Consider `N[C@H]1C(O)O[C@H](CO)[C@@H](O)[C@@H]1O` (stereo partly drawn) [glucosamine, Glucosamine], for which the TGF-β1 expression entry in data set [1] is recorded as “upregulated”. The “cartilage development and organization across treatment groups” value in data set [2] is “best developed and well organized”. The “cartilage development in treated joints (histology, safranin-O)” value in data set [2] (four weeks after surgery, compared to PBS control and untreated control joints) is “Florid cartilage development”. In data set [3], the level in serum is around 6 µM and the “level in synovial fluid” value was around 0.5 µM. In data set [4], the “concentration window with beneficial effect on cell growth, matrix production and gene expression” value is on record as “no more than 2 mM”.
